Experiments:
[1] = system: AT-1 rat prostate tumor cells; assay: Post-thaw viability with half eutectic concentration KNO3 solution (Example 4); type: cell-based
Experimental: (§1) In freezing experiments with cell suspensions, a half eutectic concentration solution was mixed with cell culture media (Dulbecco's Modified Eagle's Medium/F-12) in 1 (salt solution): 2 (culture media) volume ratio.
AT-1 rat prostate tumor cells were cultured in vitro, as described above. Cultured AT-1 cells were separated from a culture flask by immersion in 0.05% (by volume) trypsin and 0.53 mM EDTA, and then suspended in 5% (by volume) fetal bovine serum (FBS)-supplemented medium such that the final trypsin concentration was <0.005% (by volume). After the separation, the cells were pelleted by centrifugation and the excess medium was removed. The cell pellet was re-suspended into various aqueous solutions (about 1.0 ml) before experiments and nominal cell concentration was about 2×10^6 cells/ml. The suspensions were stored in 1.5 ml microcentrifuge tube on ice (about 4° C.).
Liver tissues were also isolated from the rats.
The directional solidification stage, as described above, was used in the experiments. Controlled cooling and thawing rate were achieved by the DSC and directional solidification stage. Unless otherwise mentioned, cooling and thawing rates were 50° C./min.
For the directional solidification stage, fast thawing rates (about 200° C./min) were employed. […]
Post-thaw viabilities of AT-1 cell suspensions in various media were assessed. […]

[2] = cited from earlier work; for Eutectic Concentration: Table 1, salts used to induce eutectic crystallization; for % Eutectic Concentration (wt./wt.) / Eutectic Temp.: solute in water
AT-1 tumor tissues = assay: Histology of AT-1 tumor tissues 2 days after freezing experiments on the directional solidification stage; parameters: species or system rat; conditions: frozen to −20° C., 400×
Experimental: FIGS. 7A-7F show images of histology preparations of AT-1 tumor tissues 2 days after the freezing experiments on the directional solidification stage. Control tissues are very similar in all cases (FIGS. 7A, 7C, and 7E). Some cytoplasmic retraction is seen after salt infusion in FIGS. 7C and 7E over the control sample (FIG. 7A), but overall viability appears high. After freezing the samples to −20° C., a reduction in the number and quality of nuclei in all frozen samples is noted (FIGS. 7B, 7D, and 7F). Nuclear changes include darkening, reduction in size of chromatin, pykonsis and in some cases loss of nuclear material. In addition, cell membranes in frozen salt infused samples are indistinct and difficult to identify. All of these changes appear accentuated in the KNO3 and KCl infused samples.

[3] = Onset temperature of eutectic solidification of AT-1 cell suspension media by DSC; type: physicochemical; conditions: AT-1 cell suspension medium
Experimental: Controlled cooling and thawing rate were achieved by the DSC and directional solidification stage. Unless otherwise mentioned, cooling and thawing rates were 5° C./min.
The onset temperature of the eutectic solidification was measured using the DSC, as described herein. Generally speaking, the viability of the AT-1 cells in the suspension solutions decreased with end temperature regardless of the media used. Note that the temperatures of noticeable viability drop to coincide with the eutectic crystallization temperatures of each suspension media. When the viability of the AT-1 cell suspension in the 1×NaCl (the onset of eutectic crystallization at about […]) is compared with that of KCl infused AT-1 cell suspension (the onset of eutectic crystallization at about −21° C.), there is 70% less viability at −30° C. in the KCl infused AT-1 cell suspension.

[4] = system: AT-1 rat prostate tumor cells; assay: Post-thaw viability of AT-1 cell suspensions in various media on the directional solidification stage (Hoechst/Propidium Iodide membrane integrity assay); type: cell-based; conditions: end temperature −30° C., 5° C./minute
Experimental: as §1
AT-1 rat prostate tumor cells were cultured in vitro under standard tissue culture conditions, as are known. AT-1 cells were suspended in each eutectic changing solution, and kept at about 4° C.
Cultured AT-1 cells were separated from a culture flask by immersion in 0.05% (by volume) trypsin and 0.53 mM EDTA, and then suspended in 5% (by volume) fetal bovine serum (FBS)-supplemented medium such that the final trypsin concentration was <0.005% (by volume). After the separation, the cells were pelleted by centrifugation and the excess medium was removed. […]
Post-thaw viabilities of AT-1 cell suspensions in various media were assessed for varying end temperature of the freezing and thawing protocol on the directional solidification stage. […]
The concentrations of these solutions were determined so that the use of these solutions would not result in excessive killing of the AT-1 cells due to high osmotic pressure. […]
Viability of the AT-1 cell suspensions was measured by a membrane integrity assay using Hoechst and Propidium Iodide. […] After incubation, viability was assessed under a fluorescent microscope by scoring more than 200 cells for each sample.

| Structure (SMILES) | Eutectic Concentration [2] | % Eutectic Concentration (wt./wt.) [2] | Eutectic Temp. [2] | further results |
| --- | --- | --- | --- | --- |
| O=[N+]([O-])[O-].[K+] [KNO3, potassium nitrate] | 10.9 % wt./wt. | 10.9% (wt./wt.) | −2.9 °C | post-thaw viability ([1]; frozen to about −20° C.): 15.2±7.1%; viability of control samples ([1]; no freeze/thaw procedure): 92.1%; histological changes after freezing (nuclei, cell membranes) (AT-1 tumor tissues): accentuated |
| [Cl-].[Na+] [NaCl, sodium chloride] | 23.6 % wt./wt. | 23.6% (wt./wt.) | −21.8 °C | eutectic point of the solution ([2]; thermodynamic equilibrium): approximately −21.1 °C |
| [Cl-].[Cl-].[Mg+2] [MgCl2] |  | 21.6 % (wt./wt.) | −33.6 °C |  |
| O=S(=O)([O-])[O-].[Mg+2] [MgSO4] |  | 19.0% (wt./wt.) | −3.9 °C |  |
| [Br-].[K+] [KBr] |  |  | −13.0 °C |  |
| Cl.N [NH4Cl] |  | 18.6 % (wt./wt.) | −15.8 °C |  |
| [Ca+2].[Cl-].[Cl-] [CaCl2] |  | 29.8 % (wt./wt.) | −55 °C |  |
| OC[C@H]1O[C@@](CO)(O[C@H]2O[C@H](CO)[C@@H](O)[C@H](O)[C@H]2O)[C@@H](O)[C@@H]1O [Sucrose] |  | 62.5 % (wt./wt.) | −13.5 °C |  |
| [Cl-].[K+] [KCl, potassium chloride] | 19.7 % wt./wt. | 19.7% (wt./wt.) | −11.1 °C | onset of eutectic crystallization [3]: about −21 °C; less viability than AT-1 cell suspension in 1×NaCl [4]: 70%; histological changes after freezing (nuclei, cell membranes) (AT-1 tumor tissues): accentuated |

Source: patent US20060122588A1, “Cryosurgery compositions and methods” (Regents of the University of Minnesota, priority 2002, published 2006)
